Measurements as given in publication PMC6162693, “Investigation into the Thermal Response and Pharmacological Activity of Substituted Schiff Bases on α-Amylase and α-Glucosidase” (Antioxidants, 2018).
Converted amounts (≈) assume the structure as drawn. Like-named read-outs stand apart in the source and are kept apart here.

Experiments:
Escherichia coli = assay: Broth microdilution antimicrobial assay, E. coli; assay type: cell-based; conditions: for MBC: Escherichia coli, read-out: MBC E. coli
Protocol: (§1) Exactly 1.5 mg of sodium;10-oxido-7-oxophenoxazin-10-ium-3-olate was dissolved in 100 mL of distilled water, vortexed, filtered, sterilised, and stored at 4 °C for a maximum of 14 days before being applied as a growth indicator. 1000 μM stock solution of Schiff bases (1–9) was prepared in DMSO.
(§2) Fungi (Aspergillus niger, Candida albicans), Gram-positive bacteria (Staphylococcus aureus, Enterococcus faecalis), and Gram-negative bacteria (Salmonella typhi, Escherichia coli).
(§3) Colonies from a 24 h culture agar plate were collected with a loop and transferred to a tube containing lysogeny broth (LB). The various suspensions were incubated at 37 °C and the size adjusted to 1.5 × 10^6 CFU/mL [27].
(§4) The antimicrobial activity of Schiff bases (1–9), was evaluated using 96-well broth microdilution method as described by de Rapper et al. (2013) and Akhalwaya et al. (2018) with slight modifications. Columns 1–11 was filled 50 µL LB, followed by the addition of 50 µL of Schiff base to column 1. Thereafter, 50 µL of Schiff bases from column 1 was transferred by multichannel pipette to columns 2–10, resulting in 50 µL Schiff bases per well. Column 11 contained 100 µL of diluted standardised inoculum, while Column 12 contained 100 µL of LB as a control to monitor sterility. Then, 50 µL of the microorganism suspension was then added to columns 1–10 and the control column 11. The plates were incubated at 37 °C for 24 h, followed by the addition of 30 µL of growth indicator solution and further incubated for 2 h for the observation of colour change. On completion of incubation, the columns with blue indicator colour were reported as the MIC (µM) values. The columns with a concentration higher than the MIC value were plated on nutrient agar to determine the minimum bactericidal and fungicidal concentrations.

Aspergillus niger = assay: Broth microdilution antimicrobial assay, A. niger; assay type: cell-based
Protocol: as §1, §2, §3, §4

Candida albicans = assay: Broth microdilution antimicrobial assay, C. albicans; assay type: cell-based
Protocol: as §1, §2, §3, §4

[1] = ABTS radical cation decolourisation assay; conditions: absorbance at 734 nm, 30 min; mean ± SD (n = 3)
Protocol: (§5) The antioxidant activities of Schiff bases (1–9) were determined by DPPH, ABTS^+, H2O2, ferric reducing power assays, and compared with 3,4,5-trihydroxybenzoic acid (10), 5-(1,2-dihydroxyethyl)-3,4-dihydroxyfuran-2(5H)-one (11), and 2-(3,4-dihydroxyphenyl)-3,5,7-trihydroxy-4H-chromen-4-one (12) (as controls).
A mixture of ABTS (960.2 mg) and potassium persulphate (165.6 mg) was dissolved in 250 mL of distilled water to generate the blue-green ABTS^+ solution. The ABTS solution was stored away in the dark at ambient temperature for 24 h to generate sufficient ABTS radical cation (ABTS^+), then the absorbance was adjusted to 0.9547 with distilled water. Precisely 40 µL solution of the compounds were added to 3 mL ABTS^+ solution and incubated at 298 K for 30 min in the dark. Changes in concentration of ABTS^+ were measured at 734 nm on a spectrophotometer. The degree of ABTS^+ decolourisation was a template for evaluating the percentage proton-donating potential (%PDP) of the test compounds [24]; estimated from Equation (3). The IC50 (μM) of the compounds were determined by linear regression analysis, and all analyses were carried out in triplicate. (3) % PDP = 100⌊(Abs. of ABTS ^+ − Abs. of test compound)/(Abs. of ABTS^+)⌋

[2] = Radical scavenging over DPPH, ABTS and H2O2 assays; conditions: lower limit over the three radical assays; read-out: IC50 values for quenching the radicals (lowest over DPPH, ABTS, H2O2)
Protocol: as §5
The scavenging activity of compounds (1–12) was evaluated by adding an ethanolic solution of DPPH (300 μL, 0.05 mM) and incubated for 30 min in the dark. After that, changes in the absorbance of the mixture were measured at 517 nm on a UV-Vis spectrophotometer. […]
A mixture of ABTS (960.2 mg) and potassium persulphate (165.6 mg) was dissolved in 250 mL of distilled water to generate the blue-green ABTS^+ solution. The ABTS solution was stored away in the dark at ambient temperature for 24 h to generate sufficient ABTS radical cation (ABTS^+), then the absorbance was adjusted to 0.9547 with distilled water. […] Changes in concentration of ABTS^+ were measured at 734 nm on a spectrophotometer. […] The IC50 (μM) of the compounds were determined by linear regression analysis, and all analyses were carried out in triplicate. […]
According to the methods of Ruch et al., the H2O2 scavenging activity of compounds (1–12) was evaluated. […] The absorbance of the mixture was measured at 230 nm, thereafter, the %H2O2 scavenging activity (Equation (4)) and IC50 (μM) of the compounds 1–12 was determined. […]

Salmonella typhi = assay: Broth microdilution antimicrobial assay, S. typhi; assay type: cell-based; conditions: Salmonella enterica, TYPHI, read-out: MBC S. typhi
Protocol: as §1, §2, §3, §4

α-amylase = assay: α-Amylase inhibitory activity; assay type: biochemical; conditions: Means ×10^2 ± SD from at least three experiments
Protocol: The α-amylase inhibitory activity of Schiff bases (1–9) was evaluated by the method reported by Xiao et al. with slight modifications. Substrate solution is prepared by dissolving 1.0 g of starch in 50 mL of 0.4 M NaOH and heated at 100 °C for 5 min. The substrate solution was adjusted to a neutral pH by the addition of 0.1 M HCl, cooled on crushed ice and made to 100 mL in a standard volumetric flask with distilled water. […] Using a microplate, 40 μL substrate and 20 μL Schiff base solution were mixed, then preincubated at 37 °C for 3 min. Thereafter, 20 μL of 50 μg/mL α-amylase solution was dispensed into each well, and further incubated for 15 min. The reaction was terminated by the addition of 80 μL HCl (0.1 M); followed by 200 μL of 1 mM iodine solution, and the absorbances measured at 650 nm. Inhibitory activity was calculated from Equation (5):(5) α − amylase inhibition (%) = (A2 − A1/A4 − A3)100 where A1 is the absorbance of Schiff base, starch, and α-amylase solution after incubation, A2 is the absorbance of Schiff base and starch solution after incubation, A3 is the absorbance of starch and amylase solution after incubation, and A4 is the absorbance of a starch solution after incubation. Thereafter, the IC50 value was determined from the plot of % inhibition versus concentration.

Enterococcus faecalis = assay: Broth microdilution antimicrobial assay, E. faecalis; assay type: cell-based; conditions: for MBC: Enterococcus faecalis, read-out: MBC E. faecalis
Protocol: as §1, §2, §3, §4

Staphylococcus aureus = assay: Broth microdilution antimicrobial assay, S. aureus; assay type: cell-based; conditions: for MBC: Staphylococcus aureus, read-out: MBC S. aureus
Protocol: as §1, §2, §3, §4

[3] = DPPH radical scavenging activity; conditions: absorbance at 517 nm, 30 min; mean ± SD (n = 3)
Protocol: as §5
The scavenging activity of compounds (1–12) was evaluated by adding an ethanolic solution of DPPH (300 μL, 0.05 mM) and incubated for 30 min in the dark. After that, changes in the absorbance of the mixture were measured at 517 nm on a UV-Vis spectrophotometer. The percentage radical scavenging activities (%RSA) and half maximal inhibitory concentration (IC50) of the compounds were estimated from Equation (2) and by linear regression analysis, respectively. All studies were carried out in triplicate. (2) % RSA= 100⌊(Abs. of DPPH − Abs. of test compound)/(Abs. of DPPH)⌋

H2O2-scavenging activity = conditions: absorbance at 230 nm; mean ± SD (n = 3)
Protocol: as §5
According to the methods of Ruch et al., the H2O2 scavenging activity of compounds (1–12) was evaluated. To 100 µL aliquot of the test compounds was added 0.4 mL of 50 mM phosphate buffer followed by 0.6 mL of 2 mM H2O2 solution prepared in 50 mM phosphate buffer (pH 6.8). The absorbance of the mixture was measured at 230 nm, thereafter, the %H2O2 scavenging activity (Equation (4)) and IC50 (μM) of the compounds 1–12 was determined. All analyses were carried out in triplicate. (4) % H2O2 − scavenging activity = 100⌊(Abs. of H2O2 − Abs. of test compound)/(Abs. of H2O2)⌋

α-glucosidase = assay: α-Glucosidase inhibitory activity; assay type: biochemical; conditions: Means ×10^2 ± SD from at least three experiments
Protocol: The inhibitory activity of Schiff bases (1-9) against α-glucosidase was assessed by the method previously described by […] et al. […] Then, approximately 0.2 mL of Schiff base solution was mixed with 1.0 mL of 50 mM sodium phosphate buffer (pH 6.9) and 50 μL of α-glucosidase solution (2 U/mL). Thereafter, incubated at 37 °C for 10 min, followed by the addition of exactly 50 μL of 0.7 mM p-nitrophenyl-α-D-glucopyranoside solution in 50 mM sodium phosphate buffer (pH 6.9) and further incubated for 30 min at 37 °C. The reaction was terminated by the addition of 2.0 mL solution of 0.5 M Na2CO3. 0.3 mL aliquot of the above mixture was mixed with 4.7 mL of distilled water and the absorbance measured at 405 nm. […] (6) α - glucosidase inhibition (%) = (Ae - ASB/Ae)100 where Ae is the absorbance of the enzyme solution after incubation and ASB is the absorbance after incubation of Schiff bases solution. The assay was performed in triplicate.

[4] = system: Fungi (Aspergillus niger, Candida albicans); assay: Broth microdilution MIC, antifungal (fungus not specified); assay type: cell-based; conditions: read-out: MIC (antifungal)
Protocol: as §1, §2, §3
The antimicrobial activity of Schiff bases (1–9), was evaluated using 96-well broth microdilution method as described by de Rapper et al. (2013) and Akhalwaya et al. (2018) with slight modifications. Columns 1–11 was filled 50 µL LB, followed by the addition of 50 µL of Schiff base to column 1. Thereafter, 50 µL of Schiff bases from column 1 was transferred by multichannel pipette to columns 2–10, resulting in 50 µL Schiff bases per well. Column 11 contained 100 µL of diluted standardised inoculum, while Column 12 contained 100 µL of LB as a control to monitor sterility. Then, 50 µL of the microorganism suspension was then added to columns 1–10 and the control column 11. […]

[5] = relative to o-hydroxy derivative (8)
[6] = * = no fungicidal effect at the evaluated concentration, n = 3, read-out: MFC A. niger

SMILES | MBC (Escherichia coli) | MFC (Aspergillus niger; read-out: MFC A. niger) | MFC (Candida albicans; read-out: MFC C. albicans) | IC50 [1] | IC50 [2] | MBC (Salmonella typhi) | IC50 (α-amylase) | melting point | MBC (Enterococcus faecalis) | MBC (Staphylococcus aureus) | IC50 [3] | IC50 (H2O2-scavenging activity) | IC50 (α-glucosidase) | MIC [4] | antibacterial activity (growth inhibition), E. coli (Escherichia coli; [5]) | MFC (Aspergillus niger; [6]) | MFC (Candida albicans; 24 h, * = no fungicidal effect at the evaluated concentration, n = 3, read-out: MFC C. albicans) | antibacterial activity (growth inhibition), E. faecalis (Enterococcus faecalis; [5]) | antibacterial activity (growth inhibition), S. aureus (Staphylococcus aureus; [5]) | MFC (Candida albicans; * = no fungicidal effect at the evaluated concentration, n = 3, read-out: MFC C. albicans)
O=[N+]([O-])c1ccc(C=Nc2cc(O)[nH]n2)cc1 [Compound 1, 3-(((4-nitrophenyl)methylidene)amino)-1H-pyrazol-5-ol] | 4.31 µM (≈ 1 µg/mL) | > 4.31 µM | > 4.31 µM | 410 ± 6 µM | ≥ 290 µM | 2.15 µM (≈ 0.499 µg/mL) | 420 ± 36 µM | 285 °C | 4.31 µM (≈ 1 µg/mL) | 4.31 µM (≈ 1 µg/mL) | 290 ± 9 µM | 350 ± 5 µM | 540 ± 44 µM | – | – | – | – | – | – | –
Oc1cc(N=Cc2ccccc2)n[nH]1 [Compound 3, 3-((phenylmethylidene)amino)-1H-pyrazol-5-ol] | 2.67 µM (≈ 0.5 µg/mL) | > 5.35 µM | > 5.35 µM | 450 ± 7 µM | – | > 5.35 µM | 200 ± 74 µM | 266 °C | > 5.35 µM | > 5.35 µM | 360 ± 5 µM | 410 ± 8 µM | 560 ± 82 µM | 0.67 µM (≈ 0.125 µg/mL) | – | – | – | – | – | –
O=[N+]([O-])c1ccc(C=Nc2c(O)cc(S(=O)(=O)O)c3ccccc23)cc1 [Compound 7, 4-(4-nitrobenzylideneamino)-3-hydroxynaphthalene-1-sulphonic acid] | 1.34 µM (≈ 0.499 µg/mL) | – | – | 50 ± 5 µM | ≥ 50 µM | > 2.69 µM | 730 ± 16 µM | 200 °C | > 2.69 µM | > 2.69 µM | 200 µM | 160 ± 90 µM | 961 ± 84 µM | 0.67 µM (≈ 0.249 µg/mL) | very potent | 2.69 µM (≈ 1 µg/mL) | 1.53 µM (≈ 0.57 µg/mL) | very potent | very potent | –
O=S(=O)(O)c1cc(O)c(N=Cc2ccccc2)c2ccccc12 [Compound 9, 4-(benzylideneamino)-3-hydroxynaphthalene-1-sulphonic acid] | 3.06 µM (≈ 1 µg/mL) | – | – | 50 ± 4 µM | – | > 3.06 µM | 561 ± 42 µM | 246 °C | > 3.06 µM | > 3.06 µM | 220 ± 6 µM | 190 ± 11 µM | 660 ± 97 µM | – | – | 1.53 µM (≈ 0.501 µg/mL) | – | – | – | 1.53 µM (≈ 0.501 µg/mL)
